Results published in patent publication US8765748B2, “Indazolyl, benzimidazolyl, benzotriazolyl substituted indolinone derivatives as kinase inhibitors useful in the treatment of cancer” (University Health Network, priority 2007, dated 2014).
Where two headings read alike, the source gives them in different places.

Key:
[1] = target: T1, Aurora B (Homo sapiens, UniProt Q96GD4); test: Aurora B Inhibition Assay (Z-Lyte); type: biochemical; details: for IC50: 128 μM ATP, 28 nM Aurora B, read-out: Aurora B IC50 Ranges
T1 construct: purchased Invitrogen PV3970
T1 sequence (Q96GD4 whole entry): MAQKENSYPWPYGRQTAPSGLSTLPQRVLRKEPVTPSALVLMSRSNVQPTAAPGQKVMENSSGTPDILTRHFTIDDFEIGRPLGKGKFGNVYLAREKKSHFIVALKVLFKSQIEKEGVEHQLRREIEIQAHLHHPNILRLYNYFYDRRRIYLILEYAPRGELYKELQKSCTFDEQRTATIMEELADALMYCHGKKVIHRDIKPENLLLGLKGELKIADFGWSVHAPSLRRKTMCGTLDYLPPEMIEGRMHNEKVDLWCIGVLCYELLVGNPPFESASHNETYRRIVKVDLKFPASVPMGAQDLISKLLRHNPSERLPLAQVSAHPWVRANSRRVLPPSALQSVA
Experimental: (§1) Aurora B inhibition was determined using the Z-Lyte assay kit from Invitrogen. The assay was performed using the recommended manufacturer's instructions with 128 μM ATP and 28 nM Aurora B (Invitrogen cat #PV3970). The % inhibition values were determined according to the manufacturer's directions and IC50 values were obtained using a non-linear 4 point logistic curve fit (XLfit4, IDBS)

[2] = target: T2, PLK3 (Homo sapiens, UniProt Q9H4B4); test: PLK3 Inhibition Assay (Z-Lyte); type: biochemical; details: 100 μM ATP, 21 nM PLK3
T2 construct: purchased Invitrogen PV3812
T2 sequence (Q9H4B4 whole entry): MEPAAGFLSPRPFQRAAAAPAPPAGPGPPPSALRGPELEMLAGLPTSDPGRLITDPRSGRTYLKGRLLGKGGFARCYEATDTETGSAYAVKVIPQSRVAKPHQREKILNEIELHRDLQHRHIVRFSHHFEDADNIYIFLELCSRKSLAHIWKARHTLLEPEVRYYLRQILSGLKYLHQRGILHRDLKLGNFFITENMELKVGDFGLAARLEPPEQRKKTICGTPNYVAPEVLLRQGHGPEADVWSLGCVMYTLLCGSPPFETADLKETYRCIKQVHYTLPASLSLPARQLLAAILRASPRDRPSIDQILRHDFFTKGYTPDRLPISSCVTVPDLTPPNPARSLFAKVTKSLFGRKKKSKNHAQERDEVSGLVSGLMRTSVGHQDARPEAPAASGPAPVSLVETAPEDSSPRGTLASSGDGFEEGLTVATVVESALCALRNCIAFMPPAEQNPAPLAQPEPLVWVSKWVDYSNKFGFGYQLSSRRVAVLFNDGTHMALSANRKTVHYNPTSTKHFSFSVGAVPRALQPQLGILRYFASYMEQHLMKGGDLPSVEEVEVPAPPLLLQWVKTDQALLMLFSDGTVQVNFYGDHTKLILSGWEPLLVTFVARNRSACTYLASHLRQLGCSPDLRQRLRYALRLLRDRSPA
Experimental: as §1, with “PLK3” for “Aurora B”, “Invitrogen (cat #PV3802).” for “Invitrogen.”, “100” for “128”, “21” for “28”, “#PV3812).” for “#PV3970).”, “IDBS).” for “IDBS)”

[3] = target: T3, Aurora A (Homo sapiens, UniProt O14965); test: Aurora A Inhibition Assay (Z-Lyte); type: biochemical; details: for IC50: 20 μM ATP, 12 nM Aurora A, read-out: Aurora A IC50 Ranges
T3 construct: purchased Invitrogen PV3612
T3 sequence (O14965 1-403): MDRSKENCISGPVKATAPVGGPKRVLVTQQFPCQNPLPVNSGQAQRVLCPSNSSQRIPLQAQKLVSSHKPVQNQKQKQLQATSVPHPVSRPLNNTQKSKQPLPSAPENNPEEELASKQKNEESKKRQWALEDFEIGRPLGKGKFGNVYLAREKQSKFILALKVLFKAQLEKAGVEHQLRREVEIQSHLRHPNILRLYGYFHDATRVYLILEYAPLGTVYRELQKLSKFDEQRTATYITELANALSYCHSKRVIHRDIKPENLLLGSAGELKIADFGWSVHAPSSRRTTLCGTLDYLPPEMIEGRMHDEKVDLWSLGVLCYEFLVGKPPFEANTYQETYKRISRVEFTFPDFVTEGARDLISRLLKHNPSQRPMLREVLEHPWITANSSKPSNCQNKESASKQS
Experimental: as §1, with “Aurora A” for “Aurora B”, “with 20” for “with 128”, “and 12” for “and 28”, “cat #PV3612).” for “cat #PV3970).”

[4] = target: T4, human PLK4 (Homo sapiens, UniProt O00444); test: PLK4 Inhibition Assay (indirect ELISA); type: biochemical; details: 15 μM ATP, 4 nM GST-PLK4; read-out: PLK4 IC50 Ranges
T4 construct: amino terminal GST fusion of residues 1-391 of human PLK4; made in house; host or cells: E. coli
T4 sequence (O00444 1-391): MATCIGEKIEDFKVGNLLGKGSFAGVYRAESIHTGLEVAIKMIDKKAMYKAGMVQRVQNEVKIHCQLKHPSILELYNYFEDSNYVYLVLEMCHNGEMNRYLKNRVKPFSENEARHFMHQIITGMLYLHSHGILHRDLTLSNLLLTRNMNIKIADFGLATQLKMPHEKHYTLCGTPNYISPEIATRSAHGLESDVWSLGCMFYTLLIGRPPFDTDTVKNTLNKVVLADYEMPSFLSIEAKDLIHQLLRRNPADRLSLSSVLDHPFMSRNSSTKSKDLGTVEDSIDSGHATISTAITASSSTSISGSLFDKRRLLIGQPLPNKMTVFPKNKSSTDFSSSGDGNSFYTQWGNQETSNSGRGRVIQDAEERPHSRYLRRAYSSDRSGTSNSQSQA
Summary of the method: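 Dephosphorylated (lambda phosphatase) GST-PLK4 activity read by indirect ELISA. Compounds were pre-incubated with enzyme for 15 minutes before ATP was added. IC50 came from a non-linear 4-point logistic fit.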

[5] = system: MDA-MB-468 basal breast cancer cell line; test: Cell growth inhibition, Sulforhodamine B assay (SRB); type: cell-based; details: Homo sapiens
Experimental: (§2) Breast cancer cells (MCF-7, MDA-MB-468, HCC1954), colon cancer cells (SW620) and lung cancer cells (A549), together with human mammary epithelial primary cells (HMEC), were seeded (1000 to 4000 per 80 μl per well depending on the cell growth rate) into 96 well plates, 24 hours before compound overlay. Compounds were prepared as 10 mM stock solutions in 100% DMSO which were diluted with DMEM (Dulbecco's Modified Eagle's Medium) cell growth Medium (Invitrogen, Burlington, ON, Canada) containing 10% FBS (Fetal Bovine Serum) to concentrations ranging from 50 nM to 250 μM. Aliquots (20 μl) from each concentration were overlaid to 80 μl of the pre-seeded cells in the 96 well plates to make final concentrations of 10 nM to 50 μM. The cells were cultured for 5 days before the Sulforhodamine B assay (SRB) was performed to determine the compound's cell growth inhibition activity.
(§3) Sulforhodamine B (purchased from Sigma, Oakville, ON, Canada) is a water-soluble dye that binds to the basic amino acids of the cellular proteins. Thus, colorimetric measurement of the bound dye provides an estimate of the total protein mass that is related to the cell number. the cells are fixed in situ by gently aspirating off the culture media and adding 50 μl ice cold 10% Tri-chloroacetic Acid (TCA) per well and incubate at 4° C. for 30-60 min, The plates are washed with water five times and allowed to air dry for 5 min. Addition of 50 μl 0.4% (w/v) SRB solution in 1% (v/v) acetic acid to each well and incubatation for 30 min at RT completes the staining reaction. Following staining, plates are washed four times with 1% acetic acid to remove unbound dye and then allowed to air dry for 5 min. The stain is solubilized with 100 μl of 10 mM Tris pH10.5 per well. Absorbance is read at 570 nm.
(§4) The percentage (%) of relative growth inhibition was calculated by comparing to DMSO treated only cells (100%). GI50's were determined for compounds with cytotoxic activity. The GI50 was calculated using GraphPad PRISM software (GraphPad Software, Inc., San Diego, Calif., USA).

[6] = system: MCF-7 luminal breast cancer cell line; test: as above; type: cell-based; details: Homo sapiens
Experimental: as §2, §3, §4

[7] = system: SW620 colon cancer cells; test: as above; type: cell-based; details: Homo sapiens, SW-620, 120 h, 5 days culture, read-out: Cell Line GI50 Range, SW-620
Experimental: as §2, §3, §4

[8] = system: HCC1954 basal breast cancer cell line; test: as above; type: cell-based; details: Homo sapiens, HCC1954, 120 h, 5 days culture, read-out: Cell Line GI50 Range, HCC-1954
Experimental: as §2, §3, §4

[9] = system: A549 lung cancer cells; test: as above; type: cell-based; details: Homo sapiens, A549, 120 h, 5 days culture, read-out: Cell Line GI50 Range, A-549
Experimental: as §2, §3, §4

[10] = target: T5, PLK1 (Homo sapiens, UniProt P53350); test: PLK1 Inhibition Assay (Z-Lyte); type: biochemical; details: 25 μM ATP, 8 nM PLK1; read-out: PLK1 IC50 Ranges
T5 construct: purchased Invitrogen PV3501
T5 sequence (P53350 whole entry): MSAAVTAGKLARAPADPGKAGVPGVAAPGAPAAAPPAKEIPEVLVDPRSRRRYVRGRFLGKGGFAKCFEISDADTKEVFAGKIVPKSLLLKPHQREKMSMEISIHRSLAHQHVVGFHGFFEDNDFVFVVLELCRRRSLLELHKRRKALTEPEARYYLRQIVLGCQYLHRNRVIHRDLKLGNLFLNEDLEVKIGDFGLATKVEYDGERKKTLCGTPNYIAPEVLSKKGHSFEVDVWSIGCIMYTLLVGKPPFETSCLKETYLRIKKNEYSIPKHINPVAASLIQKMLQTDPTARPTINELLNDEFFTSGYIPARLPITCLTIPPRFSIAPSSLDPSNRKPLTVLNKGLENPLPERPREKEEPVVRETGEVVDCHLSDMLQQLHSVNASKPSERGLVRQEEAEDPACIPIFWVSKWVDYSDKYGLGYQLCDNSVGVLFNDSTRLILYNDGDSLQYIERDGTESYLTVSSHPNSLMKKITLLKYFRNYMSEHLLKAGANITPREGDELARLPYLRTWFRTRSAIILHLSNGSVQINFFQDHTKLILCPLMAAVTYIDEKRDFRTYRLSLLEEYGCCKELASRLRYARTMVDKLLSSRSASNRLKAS
Experimental: PLK1 inhibition was determined using the Z-Lyte assay kit from Invitrogen (cat #PV3802). […] The % inhibition values were determined according to the manufacturer's directions and IC50 values were obtained using a non-linear 4 point logistic curve fit (XLfit4, IDBS)

[11] = target: T6, PLK2 (Homo sapiens, UniProt Q9NYY3); test: PLK2 Inhibition Assay (Z-Lyte); type: biochemical; details: for inhibition at 10 µM: 10 μM compound, read-out: PLK2 relative inhibition percentage at a dose of 10 μM
T6 construct: purchased Invitrogen PV4204
T6 sequence (Q9NYY3 whole entry): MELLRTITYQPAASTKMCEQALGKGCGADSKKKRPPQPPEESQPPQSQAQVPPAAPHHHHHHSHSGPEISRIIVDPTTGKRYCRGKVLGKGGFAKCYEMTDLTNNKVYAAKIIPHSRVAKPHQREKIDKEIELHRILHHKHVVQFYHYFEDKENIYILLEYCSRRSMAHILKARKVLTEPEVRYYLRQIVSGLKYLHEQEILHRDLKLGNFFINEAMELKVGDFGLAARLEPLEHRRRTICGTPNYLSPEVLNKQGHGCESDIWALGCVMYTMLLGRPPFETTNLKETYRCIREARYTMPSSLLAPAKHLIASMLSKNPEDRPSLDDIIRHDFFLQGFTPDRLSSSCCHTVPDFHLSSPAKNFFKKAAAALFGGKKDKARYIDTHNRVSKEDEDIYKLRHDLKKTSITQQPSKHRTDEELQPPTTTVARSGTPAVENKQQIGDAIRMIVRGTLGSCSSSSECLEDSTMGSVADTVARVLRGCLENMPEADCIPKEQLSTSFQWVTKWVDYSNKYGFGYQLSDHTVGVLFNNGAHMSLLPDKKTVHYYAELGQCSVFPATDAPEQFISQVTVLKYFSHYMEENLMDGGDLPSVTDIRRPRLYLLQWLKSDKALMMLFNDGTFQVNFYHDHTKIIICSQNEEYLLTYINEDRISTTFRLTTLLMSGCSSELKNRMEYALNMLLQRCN
Experimental: as §1, with “PLK2” for “Aurora B”, “Invitrogen (cat #PV3802).” for “Invitrogen.”, “60” for “128”, “133” for “28”, “#PV4204).” for “#PV3970).”

[12] = system: T47 D breast cancer cell line; test: Cell growth inhibition, SRB assay, extended panel; type: cell-based; details: Homo sapiens, T47D; read-out: GI50 on T47D Breast cancer cell line
Experimental: as §2, §3, §4
In addition to the cell lines tested as described above, selected compounds have been assayed against an extended panel. […] The sulforhodamine B assay (SRB) described above was use to assay test compounds against the extended panel (Table 9).

[13] = MDA-MB-468, 120 h, 5 days culture, SRB, read-out: Cell Line GI50 Range, MDA-MB-468
[14] = MCF7, 120 h, 5 days culture, SRB, read-out: Cell Line GI50 Range, MCF-7

| SMILES | IC50 [1] [µM] | IC50 [2] [µM] | IC50 [3] [µM] | IC50 [4] [µM] | IC50 [10] [µM] | other results |
| --- | --- | --- | --- | --- | --- | --- |
| CN(C)c1ccc(C#Cc2n[nH]c3cc(C=C4C(=O)Nc5ccccc54)ccc23)cc1 (mixture of isomers) [Example A149, (E and Z)-3-((3-((4-(dimethylamino)phenyl)ethynyl)-1H-indazol-6-yl)methylene)indolin-2-one] | < 5 | > 0.5 | 5 to 50 | < 5 | – | – |
| CN1CCN(c2ncc(-c3n[nH]c4cc(C=C5C(=O)Nc6ccc(OC(F)(F)F)cc65)ccc34)cn2)CC1 [Example A152, (E & Z)-3-((3-(2-(4-methylpiperazin-1-yl)pyrimidin-5-yl)-1H-indazol-6-yl)methylene)-5-(trifluoromethoxy)indolin-2-one] | 5 to 50 | > 0.5 | – | < 5 | – | – |
| CC(C)c1ccc2c(c1)/C(=C\c1ccc3c(/C=C/c4ccncc4)n[nH]c3c1)C(=O)N2 [Example A127, (E)-5-isopropyl-3-((3-((E)-2-(pyridin-4-yl)vinyl)-1H-indazol-6-yl)methylene)indolin-2-one 2,2,2-trifluoroacetate] | < 5 | > 0.5 | < 5 | < 5 | – | GI50 [5, 13]: < 5 µM; GI50 [6, 14]: < 5 µM; GI50 [7]: < 5 µM; GI50 [8]: < 5 µM; GI50 [9]: 5 to 20 µM |
| CC(=O)Nc1cccc2c1NC(=O)/C2=C/c1ccc2cn[nH]c2c1 [Example A49, (E)-N-(3-((1H-indazol-6-yl)methylene)-2-oxoindolin-7-yl)acetamide] | – | > 0.5 | – | < 5 | > 50 | inhibition at 10 µM [11]: > 50% |
| Cc1ccc2c(c1)/C(=C\c1ccc3c(/C=C/C(=O)N(C)CCN(C)C)n[nH]c3c1)C(=O)N2 [Example A125, (E and Z)—N-(2-(dimethylamino)ethyl)-N-methyl-3-(6-((E)-(5-methyl-2-oxoindolin-3-ylidene)methyl)-1H-indazol-3-yl)acrylamide] | < 5 | > 0.5 | – | < 5 | – | inhibition at 10 µM ([3]; 10 μM compound, read-out: Aurora A relative inhibition percentage at a dose of 10 μM): > 50% |
| COc1ccc2c(c1)C(=Cc1ccc3c(-c4cccc(-c5nnn[nH]5)c4)n[nH]c3c1)C(=O)N2 (mixture of isomers) [Example A153, (E and Z)-3-((3-(3-(1H-tetrazol-5-yl)phenyl)-1H-indazol-6-yl)methylene)-5-methoxyindolin-2-one] | < 5 | > 0.5 | < 5 | < 5 | – | – |
| O=C1Nc2ccccc2/C1=C\c1ccc2[nH]ncc2c1 [Example A6, (E)-3-((1H-indazol-5-yl)methylene)indolin-2-one] | < 5 | > 0.5 | < 5 | < 5 | 5 to 50 | GI50 [5, 13]: 5 to 20 µM; GI50 [6, 14]: 5 to 20 µM; IC50 ([11]; 60 μM ATP, 133 nM PLK2, read-out: PLK2 IC50 Ranges): < 5 µM |
| CC(C)NC(=O)Nc1ccc2c(c1)/C(=C\c1ccc3cn[nH]c3c1)C(=O)N2 [Example A26, (E)-1-(3-((1H-indazol-6-yl)methylene)-2-oxoindolin-5-yl)-3-isopropylurea] | – | > 0.5 | < 5 | < 5 | 5 to 50 | inhibition at 10 µM ([1]; 10 μM compound, read-out: Aurora B relative inhibition percentage at a dose of 10 μM): < 50%; inhibition at 10 µM [11]: < 50% |
| COc1ccc2c(c1)/C(=C\c1ccc3c(C#Cc4cccnc4)n[nH]c3c1)C(=O)N2 [Example A148, (E)-5-methoxy-3-((3-(pyridin-3-ylethynyl)-1H-indazol-6-yl)methylene)indolin-2-one] | < 5 | > 0.5 | – | < 5 | – | – |
| O=C(O)/C=C/c1n[nH]c2cc(/C=C3/C(=O)Nc4ccccc43)ccc12 [Example A70, (E)-3-(6-((E)-(2-oxoindolin-3-ylidene)methyl)-1H-indazol-3-yl)acrylic acid] | – | – | – | < 5 | – | GI50 [12]: > 50 µM; GI50 ([5]; MDA-MB-468, read-out: GI50 on MDA-MB-468 Breast cancer cell line): > 50 µM; GI50 ([6]; MCF7, read-out: GI50 on MCF-7 Breast cancer cell line): > 50 µM |
| Nc1ccc2c(c1)/C(=C\c1ccc3[nH]nnc3c1)C(=O)N2 [Example A2, (E)-3-((1H-benzo[d][1,2,3]triazol-5-yl)methylene)-5-aminoindolin-2-one] | < 5 | > 0.5 | < 5 | < 5 | 5 to 50 | GI50 [5, 13]: 5 to 20 µM; GI50 [6, 14]: > 50 µM; inhibition at 10 µM [11]: < 50% |
